Test results published in publication PMC12779026, “α-Glycosidase activity of novel coumarin–triazole–coumarin dyads” (Turkish Journal of Chemistry, 2025).
“Also recorded” adds a separate entry of the source.

What was measured:
α-glycosidase [1] = experiment: α-Glycosidase inhibitory assay (spectrophotometric, 4-pNPG substrate, 405 nm); format: biochemical; details: 0.5 U/mL α-glycosidase, 5 mM 4-pNPG, phosphate buffer pH 6.9, compounds 5–250 μM
Description: The α-glycosidase inhibitory effects of the compounds were determined as described in the previous study. Acarbose (Sigma-Aldrich, A8980) was used as a reference compound in this study. The compounds were first dissolved in 25 mM DMSO and then diluted to 1 mM with phosphate buffer (0.1 M, pH: 6.9). In brief, the compounds and acarbose in phosphate buffer (0.1 M, pH: 6.9) were added to a 96-well plate at 5–250 μM. Then, 100 μL, 0.5 U/mL α-glycosidase (Sigma-Aldrich, G5003) was added to the wells. After 10 min, 50 μL of 5 mM p-nitrophenyl-α-D-glucopyranoside (4-pNPG) (Sigma-Aldrich, 487506) was added as a substrate to each well. After incubation for 10 min, spectrophotometric measurement was performed at 405 nm. The percentage inhibition rate of the compounds was calculated using the following formula: […]
In this formula, A0 and A1 represent the absorbance of the mixture in the absence and presence of the compound, respectively. In addition, IC50 values, which indicate the […] required to inhibit half of the enzyme activity, were calculated.

α-glycosidase [2] = experiment: Kinetic analysis of α-glycosidase inhibition (Lineweaver–Burk and Dixon plots); format: biochemical
Description: To determine this, the final concentration of α-glycosidase was fixed at 0.5 U/mL. Then, different concentrations of 4-pNPG (2.5–20 mM) and varying concentrations of 4e (20 μM, 40 μM, and 100 μM) showing inhibitory potential were added to the wells. Following incubation, the absorbance values at 405 nm in the presence and absence of the compound were measured in the microplate reader. Lineweaver–Burk and Dixon plots were used to determine the inhibitor type and the inhibitory constant (Ki) of 4e. In the Lineweaver–Burk plot, the y-axis represents 1/V, the inverse of the reaction rate, while the x-axis represents 1/[S], the inverse of the substrate concentration. According to this plot, the points intersecting the y-axis give the value 1/Vmax. From here, the Vmax value, which represents the maximum reaction rate, can be determined. Km, a value indicating the enzyme’s interest in the substrate, can be determined from the points where the line intersects the x-axis. The type of inhibition is then determined by analyzing the changes in Vmax and Km. The Dixon graph is used to calculate the Ki value, which indicates the inhibitory potential of 4e.

| Structure (SMILES) | IC50 (α-glycosidase [1]) [µM] | Ki (α-glycosidase [2]; Dixon plot) [µM] | Type (of inhibition) (α-glycosidase [2]; Lineweaver–Burk plot, 4-pNPG 2.5–20 mM, 4e 20, 40, 100 μM) |
| --- | --- | --- | --- |
| Cc1c(O)ccc2c(Cn3cc(COc4ccc5cc(-c6ccccc6)c(=O)oc5c4)nn3)cc(=O)oc12 [4a, 7-Hydroxy-8-methyl-4-((4-(((2-oxo-3-phenyl-2H-chromen-7-yl)oxy)methyl)-1H-1,2,3-triazol-1-yl)methyl)-2H-chromen-2-one] | 95 ± 3.55 |  |  |
| Cc1ccc(-c2cc3ccc(OCc4cn(Cc5cc(=O)oc6c(C)c(O)ccc56)nn4)cc3oc2=O)cc1 [4b, 7-Hydroxy-8-methyl-4-((4-(((2-oxo-3-(p-tolyl)-2H-chromen-7-yl)oxy)methyl)-1H-1,2,3-triazol-1-yl)methyl)-2H-chromen-2-one] | 123 ± 4.2 |  |  |
| COc1ccc(-c2cc3ccc(OCc4cn(Cc5cc(=O)oc6c(C)c(O)ccc56)nn4)cc3oc2=O)cc1 [4c, 7-Hydroxy-4-((4-(((3-(4-methoxyphenyl)-2-oxo-2H-chromen-7-yl)oxy)methyl)-1H-1,2,3-triazol-1-yl)methyl)-8-methyl-2H-chromen-2-one] | 109 ± 2.4 |  |  |
| Cc1c(O)ccc2c(Cn3cc(COc4ccc5cc(-c6ccc(F)cc6)c(=O)oc5c4)nn3)cc(=O)oc12 [4d, 4-((4-(((3-(4-Fluorophenyl)-2-oxo-2H-chromen-7-yl)oxy)methyl)-1H-1,2,3-triazol-1-yl)methyl)-7-hydroxy-8-methyl-2H-chromen-2-one] | 93.5 ± 1.7 |  |  |

Stronger by IC50 (α-glycosidase [1]), values ahead:

| IC50 (α-glycosidase [1]) [µM] | Ki (α-glycosidase [2]; Dixon plot) [µM] | Structure (SMILES) | Type (of inhibition) (α-glycosidase [2]; Lineweaver–Burk plot, 4-pNPG 2.5–20 mM, 4e 20, 40, 100 μM) |
| --- | --- | --- | --- |
| 39 ± 0.77 | 19.95 ± 0.15 | Cc1c(O)ccc2c(Cn3cc(COc4ccc5cc(-c6ccc([N+](=O)[O-])cc6)c(=O)oc5c4)nn3)cc(=O)oc12 [4e, 7-Hydroxy-8-methyl-4-((4-(((3-(4-nitrophenyl)-2-oxo-2H-chromen-7-yl)oxy)methyl)-1H-1,2,3-triazol-1-yl)methyl)-2H-chromen-2-one] | mixed type; also recorded: mixed inhibitor |
| 64.5 ± 2.53 |  | C[C@H]1O[C@H](O[C@H]2[C@H](O)[C@@H](O)[C@@H](O[C@H]3[C@H](O)[C@@H](O)C(O)O[C@@H]3CO)O[C@@H]2CO)[C@H](O)[C@@H](O)[C@@H]1N[C@H]1C=C(CO)[C@@H](O)[C@H](O)[C@H]1O (some centres unmarked) [Acarbose, reference compound] |  |
